pIC50: −log10 of the molar value. Structures can show the parent of a compound that is named as a salt.

This assay has as its system GDF8 signaling (p-SMAD-3 (Ser423/425)). Briefly: AlphaScreen SureFire SMAD3 (p-Ser423/425) assay, GDF8-stimulated cells (GDF pSMAD). Format: cell-based. Particulars: Mus musculus, MPC-11, MPC11; GDF8-stimulated; p-SMAD3 AlphaScreen; read-out: GDF pSMAD (MPC11) (inhibition of GDF8 signaling). In general terms: Alpha assays give light when donor and acceptor beads are brought close together.

Consider `Cc1cc(-c2ncccc2-c2cc(C)c3[nH]ncc3c2)ccc1F` [Compound 175, 5-(2-(4-Fluoro-3-methylphenyl)pyridin-3-yl)-7-methyl-1H-indazole], for which the pIC50 was 6.93.
`Cc1cccc(-c2ncccc2-c2cc(C)c3[nH]ncc3c2)c1` [Compound 176, 7-Methyl-5-(2-m-tolylpyridin-3-yl)-1H-indazole]: the pIC50 was 7.24.
With `Cc1cc(-c2ncccc2-c2ccc3nc[nH]c3c2)ccc1F` [Compound 177, 6-(2-(4-Fluoro-3-methylphenyl)pyridin-3-yl)-1H-benzo[d]imidazole] the figure was 6.44.
Then `Cc1cccc(-c2ncccc2-c2ccc3nc[nH]c3c2)c1` [Compound 178, 6-(2-m-Tolylpyridin-3-yl)-1H-benzo[d]imidazole], with 6.73; and `Cc1cc(-c2ncccc2-c2ccc3ncoc3c2)ccc1F` [Compound 180, 6-(2-(4-Fluoro-3-methylphenyl)pyridin-3-yl)benzo[d]oxazole], with 6.37; and `Cc1cccc(-c2ncccc2-c2ccc3ncoc3c2)c1` [Compound 181, 6-(2-m-Tolylpyridin-3-yl)benzo[d]oxazole], with 6.27.
Then `CCn1ncc2cc(-c3cccnc3-c3ccc(F)c(C)c3)ccc21` [Compound 184, 1-Ethyl-5-(2-(4-fluoro-3-methylphenyl)pyridin-3-yl)-1H-indazole], with 4.89.
Regarding `CCn1ncc2cc(-c3cccnc3-c3cccc(C)c3)ccc21` [Compound 185, 1-Ethyl-5-(2-m-tolylpyridin-3-yl)-1H-indazole], the pIC50 is 5.05.
Then `Cc1cccc(-c2ncccc2-c2ccc3ncn(C)c3c2)c1` [Compound 186, 1-methyl-6-(2-m-tolylpyridin-3-yl)-1H-benzo[d]imidazole], with 6.52.
Then `Cc1cc(-c2ncccc2-c2ccc3ncn(C)c3c2)ccc1F` [Compound 187, 6-(2-(4-Fluoro-3-methylphenyl)pyridin-3-yl)-1-methyl-1H-benzo[d]imidazole], with 6.64.
With `Cc1cc(-c2ncccc2-c2ccc3ncnn3c2)ccc1F` [Compound 191, 6-(2-(4-Fluoro-3-methylphenyl)pyridin-3-yl)-[1,2,4]triazolo[1,5-a]pyridine] the figure was 6.18; with `Cc1cccc(-c2ncccc2-c2ccc3ncnn3c2)c1` [Compound 192, 6-(2-m-Tolylpyridin-3-yl)-[1,2,4]triazolo[1,5-a]pyridine], 6.46; with `c1cc(-c2ncccc2-c2ccc3nccn3c2)cc(C2CC2)c1` [Compound 193, 6-(2-(3-Cyclopropylphenyl)pyridin-3-yl)H-imidazo[1,2-a]pyridine], 6.61.
Turning to `c1cc(-c2ncccc2-c2ccc3ncsc3c2)cc(C2CC2)c1` [Compound 194, 6-(2-(3-Cyclopropylphenyl)pyridin-3-yl)benzo[d]thiazole], the pIC50 was 6.83.
Then `FC(F)(F)c1cccc(-c2ncccc2-c2ccc3[nH]ncc3c2)c1` [Compound 197, 5-(2-(3-(Trifluoromethyl)phenyl)pyridin-3-yl)-1H-indazole], with 6.45; and `FC(F)(F)c1cccc(-c2ncccc2-c2cnc3[nH]ncc3c2)c1` [Compound 198, 5-(2-(3-(Trifluoromethyl)phenyl)pyridin-3-yl)-1H-pyrazolo[3,4-b]pyridine], with 6.36.
Then `FC(F)(F)c1cccc(-c2ncccc2-c2ccc3nccn3c2)c1` [Compound 199, 6-(2-(3-(Trifluoromethyl)phenyl)pyridin-3-yl)H-imidazo[1,2-a]pyridine], with 5.93; and `Cn1cnc2ccc(-c3cccnc3-c3cccc(C4CC4)c3)cc21` [Compound 200, 6-(2-(3-Cyclopropylphenyl)pyridin-3-yl)-1-methyl-1H-benzo[d]imidazole], with 6.58.
Regarding `Cc1cc(-c2ncccc2-c2ccc3ccncc3c2)ccc1F` [Compound 209, 7-(2-(4-Fluoro-3-methylphenyl)pyridin-3-yl)isoquinoline], the pIC50 is 4.74.
With `Cc1cccc(-c2ncccc2-c2ccc3ccncc3c2)c1` [Compound 210, 7-(2-m-Tolylpyridin-3-yl)isoquinoline] the figure was 4.90.
Then `Cc1cccc(-c2ncccc2-c2ccc3ncn(CCCO)c3c2)c1` [compound 38], with 5.49; and `Cc1cccc(-c2ncccc2-c2ccc3ncn(C(C)C)c3c2)c1` [compound 47], with 5.08; and `Cc1cccc(-c2ncccc2-c2ccc3[nH]ncc3c2)n1` [compound 116, 5-(2-(6-Methylpyridin-2-yl)pyridin-3-yl)-1H-indazole], with 7.49.
In the case of `Cc1cc(-c2ncccc2-c2ccc3c(cnn3C(=O)OC[C@@H](N)Cc3c[nH]c4ccccc34)c2)ccc1F` [compound 179, (S)-2-Amino-3-(1H-indol-3-yl)propyl 5-(2-(4-fluoro-3-methylphenyl)pyridin-3-yl)-1H-indazole-1-carboxylate Trifluoroacetic Acid Salt], the pIC50 was 6.47.
With `COC(=O)c1cc(-c2cccnc2-c2ccc(F)c(C)c2)cc2cn[nH]c12` [compound 190, Methyl 5-(2-(4-fluoro-3-methylphenyl)pyridin-3-yl)-1H-indazole-7-carboxylate] the figure was 5.81; with `Cc1cc(-c2ncccc2-c2cc(C(=O)O)c3[nH]ncc3c2)ccc1F` [compound 195, 5-(2-(4-Fluoro-3-methylphenyl)pyridin-3-yl)-1H-indazole-7-carboxylic acid], 5.02.
Then `Fc1ccc(-c2ncccc2-c2ccc3[nH]ncc3c2)cc1C1CC1` [compound 211, 5-(2-(3-Cyclopropyl-4-fluorophenyl)pyridin-3-yl)-1H-indazole], with 6.70; and `Cc1cc(-c2ncc(NC3CC3)cc2-c2ccc3[nH]ncc3c2)ccc1F` [compound 212, N-Cyclopropyl-6-(4-fluoro-3-methylphenyl)-5-(1H-indazol-5-yl)pyridin-3-amine], with 4.74; and `CC(C)NC(=O)Nc1cnc(-c2cccc(C3CC3)c2)c(-c2ccc3[nH]ncc3c2)c1` [compound 213, 1-(6-(3-Cyclopropylphenyl)-5-(1H-indazol-5-yl)pyridin-3-yl)-3-isopropylurea], with 5.35.
With `Cc1cccc(-c2ncc(NC(=O)NC(C)C)cc2-c2ccc3[nH]ncc3c2)c1` [compound 214, 1-(5-(1H-Indazol-5-yl)-6-(m-tolyl)pyridin-3-yl)-3-isopropylurea], the pIC50 was 5.58.
With `Cc1cc(-c2ncc(NC(=O)NC(C)C)cc2-c2ccc3c(cnn3C(=O)NC(C)C)c2)ccc1F` [compound 215, 5-(2-(4-Fluoro-3-methylphenyl)-5-(3-isopropylureido)pyridin-3-yl)-N-isopropyl-1H-indazole-1-carboxamide] the figure was 4.80; with `Fc1ccc(-c2ncccc2-c2ccc3ncccc3n2)cc1C1CC1` [compound 216, 2-(2-(3-cyclopropyl-4-fluorophenyl)pyridin-3-yl)-1,5-naphthyridine], 6.13.
Then `Fc1ccc(-c2ncccc2-c2ccc3ncnn3c2)cc1C1CC1` [compound 217, 6-(2-(3-Cyclopropyl-4-fluorophenyl)pyridin-3-yl)-[1,2,4]triazolo[1,5-a]pyridine], with 6.08.
As for `Fc1ccc(-c2ncccc2-c2ccc3nccn3c2)cc1C1CC1` [compound 218, 6-(2-(3-Cyclopropyl-4-fluorophenyl)pyridin-3-yl)imidazo[1,2-a]pyridine], the pIC50 is 6.35.
Then `Cc1cc(-c2ncc(NC(=O)N3CCOCC3)cc2-c2ccc3nccn3c2)ccc1F` [compound 219, N-(6-(4-Fluoro-3-methylphenyl)-5-(imidazo[1,2-a]pyridin-6-yl)pyridin-3-yl)morpholine-4-carboxamide], with 5.17.
With `CCNC(=O)Nc1cnc(-c2ccc(F)c(C)c2)c(-c2ccc3nccn3c2)c1` [compound 220, 1-Ethyl-3-(6-(4-fluoro-3-methylphenyl)-5-(imidazo[1,2-a]pyridin-6-yl)pyridin-3-yl)urea] the figure was 5.06; with `N#Cc1cnc2ccc(-c3cccnc3-c3ccc(F)c(C4CC4)c3)cn12` [compound 223, 6-(2-(3-Cyclopropyl-4-fluorophenyl)pyridin-3-yl)imidazo[1,2-a]pyridine-3-carbonitrile], 6.15; with `NC(=O)c1cnc2ccc(-c3cccnc3-c3ccc(F)c(C4CC4)c3)cn12` [compound 224, 6-(2-(3-Cyclopropyl-4-fluorophenyl)pyridin-3-yl)imidazo[1,2-a]pyridine-3-carboxamide], 6.21.
As to `Cc1cc(-c2ncc(CN3CCOCC3)cc2-c2ccc3nccnc3c2)ccc1F` [compound 225, 4-((6-(4-Fluoro-3-methylphenyl)-5-(quinoxalin-6-yl)pyridin-3-yl)methyl)morpholine], the pIC50 was 5.02.
With `Cc1cc(-c2ncc(CN(C)C)cc2-c2ccc3nccnc3c2)ccc1F` [compound 226, 1-(6-(4-Fluoro-3-methylphenyl)-5-(quinoxalin-6-yl)pyridin-3-yl)-N,N-dimethylmethanamine] the figure was 5.00; with `COCc1cnc(-c2ccc(F)c(C)c2)c(-c2ccc3nccnc3c2)c1` [compound 228, 6-(2-(4-Fluoro-3-methylphenyl)-5-(methoxymethyl)pyridin-3-yl)quinoxaline], 5.01; with `Cc1cc(-c2ncc(CN3CCN(C)CC3)cc2-c2ccc3nccnc3c2)ccc1F` [compound 230, 6-(2-(4-Fluoro-3-methylphenyl)-5-((4-methylpiperazin-1-yl)methyl)pyridin-3-yl)quinoxaline], 4.97.
Turning to `Cc1cc(-c2ncc(COCC(=O)N(C)C)cc2-c2ccc3nccnc3c2)ccc1F` [compound 231, 2-((6-(4-Fluoro-3-methylphenyl)-5-(quinoxalin-6-yl)pyridin-3-yl)methoxy)-N,N-dimethylacetamide], the pIC50 was 4.97.
Then `CNC(=O)COCc1cnc(-c2ccc(F)c(C)c2)c(-c2ccc3nccnc3c2)c1` [compound 232, 2-((6-(4-Fluoro-3-methylphenyl)-5-(quinoxalin-6-yl)pyridin-3-yl)methoxy)-N-methylacetamide], with 4.97.

The values are drawn from US10858335B2 (Rigel Pharmaceuticals, Inc., priority 2014, dated 2020).
